Values of other authors as cited in patent US20220273628A1, “EFFECTS OF LYSERGIC ACID DIETHYLAMIDE (LSD) AND OF LSD ANALOGS TO ASSIST PSY[…] G[…] DISORDER OR OTHER ANXIETY NOT RELATED TO LIFE-T[…]” (Universitätsspital Basel, priority 2021, published 2022).

How the values were obtained:
[1] = molecular target: 5-HT2A receptor (Homo sapiens, UniProt P28223); settings: cited from earlier work
[2] = tested on: patients with treatment-resistant depression; settings: 12 patients, cited from earlier work

Chain of 5-HT2A receptor (P28223 whole entry): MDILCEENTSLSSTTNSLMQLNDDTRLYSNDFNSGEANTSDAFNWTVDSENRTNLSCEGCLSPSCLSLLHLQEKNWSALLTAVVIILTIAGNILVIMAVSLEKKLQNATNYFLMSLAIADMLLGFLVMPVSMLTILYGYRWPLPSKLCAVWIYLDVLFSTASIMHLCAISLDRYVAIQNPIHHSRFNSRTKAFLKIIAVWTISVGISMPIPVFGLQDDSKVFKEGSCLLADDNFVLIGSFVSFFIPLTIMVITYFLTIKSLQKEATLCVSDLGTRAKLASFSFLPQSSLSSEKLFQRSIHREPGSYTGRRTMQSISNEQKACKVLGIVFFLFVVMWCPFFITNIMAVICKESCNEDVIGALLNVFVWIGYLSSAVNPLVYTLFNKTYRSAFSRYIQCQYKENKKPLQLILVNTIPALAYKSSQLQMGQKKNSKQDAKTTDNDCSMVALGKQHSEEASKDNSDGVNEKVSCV

SMILES | activity at the 5-HT2A receptor [1] | transient anxiety during drug onset ([2]; 10 mg and 25 mg) | mild and transient nausea [2] | transient confusion or thought disorder [2] | transient headache [2]
CN(C)CCc1c[nH]c2ccccc12 [DMT, N,N-dimethyltryptamine] | agonists |  |  |  | 
COc1cc(CCN)cc(OC)c1OC [mescaline] | agonists |  |  |  | 
CN(C)CCc1c[nH]c2cccc(OP(=O)(O)O)c12 [psilocybin] |  | all patients | four | nine | four
